Results as given in US12171775B2, “Use of cladribine for treating autoimmune neuromuscular disease” (priority 2017, dated 2024).

Key:
[1] = tested on: patient with IgM associated inflammatory peripheral neuropathy; settings: intravenous, approximately 100 mg cumulative dose; cited from earlier work
[2] = tested on: patient with acetylcholine receptor antibody positive myasthenia gravis; assay: Treatment of a person suffering from myasthenia gravis with cladribine (single patient; clinical rating scales and tolerability); type: in vivo, human
Procedure: A patient with existing, acetylcholine receptor antibody positive myasthenia gravis (MG) diagnosed.
They received 20 mg cladribine, administered by subcutaneous injection of 2.5 mg cladribine in 2.5 ml in each of four limbs (total 10 mg), on each of two consecutive days. This total dose of 20 mg is markedly less than the total doses of 200-400 mg given in recent multiple sclerosis trials. Clinical assessment using two scales was performed one week before initiation of cladribine administration, and three months after first cladribine administration. The treatment with oral steroids and pyridostigmine remained stable over observation period.
The two scales used were:
• Myasthenia Gravis Composite Scale (Burns T et al. Neurology 74:1434-40 (2010) • Myasthenia Gravis Activities of Daily Living (Wolfe G et al. Neurology 52: 1487-89 (1999)

[3] = tested on: multiple sclerosis (MS) patients; settings: 3.5 mg/kg and 5.25 mg/kg by oral tablets; cited from earlier work
[4] = target: A2A (adenosine receptor class 2a) (Homo sapiens, UniProt P29274); settings: cited from earlier work
human lymphocytes = settings: phosphorylation by CK blocked, lymphocyte death does not occur; cited from earlier work
[5] = 3 months post vs pre-cladribine

Chain of A2A (adenosine receptor class 2a) (P29274 whole entry): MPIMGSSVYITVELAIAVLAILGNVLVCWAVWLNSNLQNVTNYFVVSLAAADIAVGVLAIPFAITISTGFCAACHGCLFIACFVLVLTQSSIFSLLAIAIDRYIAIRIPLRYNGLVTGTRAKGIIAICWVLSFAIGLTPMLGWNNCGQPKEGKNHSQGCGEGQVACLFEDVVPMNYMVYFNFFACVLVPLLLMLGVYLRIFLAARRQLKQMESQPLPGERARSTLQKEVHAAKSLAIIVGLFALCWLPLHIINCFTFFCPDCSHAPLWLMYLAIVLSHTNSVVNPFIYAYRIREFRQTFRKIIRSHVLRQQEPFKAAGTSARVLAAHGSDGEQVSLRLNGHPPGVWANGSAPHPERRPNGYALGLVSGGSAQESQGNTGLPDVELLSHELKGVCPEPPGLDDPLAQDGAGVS

Row | Structure (SMILES) | Clinical outcome in IgM associated inflammatory peripheral neuropathy [1] | MG Composite Scale score, 3 months post-cladribine ([2]; 20 mg total s.c. (10 mg on each of two consecutive days), 3 months after first administration, pre-cladribine score 31) | MG Activities of Daily Living score, 3 months post-cladribine ([2]; 20 mg total s.c., 3 months after first administration, pre-cladribine score 19) | Adverse events considered possible side effects of cladribine ([2]; 20 mg total s.c., MG patient) | Transient worsening of signs after treatment initiation ([2]; 20 mg total s.c., MG patient) | Improvement on the MG Activities of Daily Living scale [2, 5] [point] | Improvement on the MG Composite Scale [2, 5] [point] | Durability of clinical improvement after the 3 month assessment ([2]; MG patient, led to gradual withdrawal of baseline treatment) | Period of beneficial effects on the disease without frequent retreatment ([2]; after a short period of treatment) | Clinical outcome in MS (relapses, disability, MRI disease activity) [3] | Affinity at A2A receptors [4] | Induced cytokine production (human lymphocytes) | Tolerability of prior azathioprine treatment ([2]; same MG patient, before cladribine, stopped after 1 week of treatment)
1 | Nc1nc(Cl)nc2c1ncn2[C@H]1C[C@H](O)[C@@H](CO)O1 [cladribine, 2-chloro-2′-deoxyadenosine] | symptomatic improvement and reduced levels of pathogenic antibodies | 6 | 8 | did not experience any adverse events | did not produce a transient worsening of signs | 11 | 25 | sustained over the following seven months | over 10 months | fewer relapses, less disability, and less disease activity | high affinity | decreased | 
2 | Cn1cnc([N+](=O)[O-])c1Sc1ncnc2nc[nH]c12 [azathioprine] |  |  |  |  |  |  |  |  |  |  |  |  | severe intolerance due to nausea and vomiting
